Measured values as given in ChEMBL document CHEMBL1154289, “Structure based design of novel irreversible FAAH inhibitors” (Bioorg Med Chem Lett, 2009).
Activity calls are given as the source filed them. The calls are words filed in the database; no cut-off is given here.

Tests used:
[1] = target: T1, Fatty-acid amide hydrolase 1 (Rattus norvegicus) (UniProt P97612); test: Inhibition of rat FAAH assessed as ratio of Kinact to Ki
T1 sequence (whole entry): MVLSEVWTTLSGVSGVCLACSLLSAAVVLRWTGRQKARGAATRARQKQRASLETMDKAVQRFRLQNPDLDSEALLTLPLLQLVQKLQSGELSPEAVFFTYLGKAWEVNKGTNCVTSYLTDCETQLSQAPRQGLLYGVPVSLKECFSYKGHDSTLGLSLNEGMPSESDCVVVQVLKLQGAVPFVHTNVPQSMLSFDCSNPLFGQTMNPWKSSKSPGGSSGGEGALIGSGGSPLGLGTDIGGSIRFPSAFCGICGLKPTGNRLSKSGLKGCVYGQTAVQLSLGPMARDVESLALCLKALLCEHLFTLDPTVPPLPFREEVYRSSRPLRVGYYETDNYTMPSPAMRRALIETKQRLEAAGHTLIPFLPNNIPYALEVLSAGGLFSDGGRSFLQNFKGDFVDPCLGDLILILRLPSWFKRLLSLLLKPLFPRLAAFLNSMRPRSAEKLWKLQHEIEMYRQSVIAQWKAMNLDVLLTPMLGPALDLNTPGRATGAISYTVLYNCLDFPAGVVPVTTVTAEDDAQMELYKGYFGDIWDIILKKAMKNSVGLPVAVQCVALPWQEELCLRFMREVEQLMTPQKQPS

[2] = target: T2, Fatty-acid amide hydrolase 1 (Homo sapiens) (UniProt O00519); test: Inhibition of human FAAH assessed as ratio of Kinact to Ki
T2 sequence (whole entry): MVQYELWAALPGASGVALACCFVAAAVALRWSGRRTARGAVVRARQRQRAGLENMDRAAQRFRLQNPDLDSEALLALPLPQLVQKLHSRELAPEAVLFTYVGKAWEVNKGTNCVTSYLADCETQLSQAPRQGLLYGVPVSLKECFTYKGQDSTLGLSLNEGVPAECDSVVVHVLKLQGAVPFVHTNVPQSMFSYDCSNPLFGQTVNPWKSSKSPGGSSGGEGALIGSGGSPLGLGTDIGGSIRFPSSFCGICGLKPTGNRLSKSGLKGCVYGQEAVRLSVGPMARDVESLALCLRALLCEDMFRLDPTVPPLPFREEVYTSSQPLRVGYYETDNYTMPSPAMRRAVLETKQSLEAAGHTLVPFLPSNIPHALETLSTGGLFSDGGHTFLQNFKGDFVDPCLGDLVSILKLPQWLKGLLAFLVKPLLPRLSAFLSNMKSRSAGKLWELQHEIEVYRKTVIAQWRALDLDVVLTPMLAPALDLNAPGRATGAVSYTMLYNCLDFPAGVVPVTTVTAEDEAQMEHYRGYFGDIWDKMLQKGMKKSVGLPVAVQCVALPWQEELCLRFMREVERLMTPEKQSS

[3] = Bioavailability in rat; format: ADME, organism-based; conditions: in vivo

Structure (SMILES) | Ratio [1] | Ratio [2] | bioavailability [3]
Cc1noc(NC(=O)N2CC(CCCc3cccc(Oc4ccc(C(F)(F)F)cn4)c3)C2)c1C | 15300 M⁻¹ s⁻¹ | 1450 M⁻¹ s⁻¹ | 
O=C(Nc1cccnc1)N1CC(C/C=C\c2cccc(Oc3ccc(C(F)(F)F)cn3)c2)C1 | inactive | 782 M⁻¹ s⁻¹ | 
O=C(Nc1cccnc1)N1CC(=CCCc2cccc(Oc3ccc(C(F)(F)F)cn3)c2)C1 | 1310 M⁻¹ s⁻¹ | 621 M⁻¹ s⁻¹ | 
O=C(Nc1cccnn1)N1CC(CCCc2cccc(Oc3ccc(C(F)(F)F)cn3)c2)C1 | 1840 M⁻¹ s⁻¹ | 3030 M⁻¹ s⁻¹ | 
O=C(Nc1cccnc1)N1CC(C#CCc2cccc(Oc3ccc(C(F)(F)F)cn3)c2)C1 | 465 M⁻¹ s⁻¹ | 861 M⁻¹ s⁻¹ | 
O=C(Nc1cccnc1)N1CC(C/C=C/c2cccc(Oc3ccc(C(F)(F)F)cn3)c2)C1 | 2310 M⁻¹ s⁻¹ | 2100 M⁻¹ s⁻¹ | 
O=C(Nc1cccnc1)N1CC(/C=C/Cc2cccc(Oc3ccc(C(F)(F)F)cn3)c2)C1 | 2380 M⁻¹ s⁻¹ | 9340 M⁻¹ s⁻¹ | 93%
O=C(Nc1cccnc1)N1CC(/C=C\Cc2cccc(Oc3ccc(C(F)(F)F)cn3)c2)C1 | 5390 M⁻¹ s⁻¹ | 9000 M⁻¹ s⁻¹ | 73%
O=C(Nc1cncc2[nH]ccc12)N1CC(CCCc2cccc(Oc3ccc(C(F)(F)F)cn3)c2)C1 | 5160 M⁻¹ s⁻¹ | 881 M⁻¹ s⁻¹ | 
O=C(Nc1cccnc1)N1CC(CCCc2cccc(Oc3ccc(C(F)(F)F)cn3)c2)C1 | 688 M⁻¹ s⁻¹ | 1090 M⁻¹ s⁻¹ | 
